Assay results published in paper PMC7252906 (Toxicology and applied pharmacology, 2019).
Several values for one entry are separate records, joined by “and”; a condition that tells them apart may be missing. Equal values may be shown once. Read-outs that look alike come from different tables or passages of the source. Blank lines part the entries; values can stand above or below the compound they belong to.

Experiments:
[1] = Radiochemical HPLC profiling of urine after [^14C]DMAE; details: Oral
[2] = as above; assay type: in vivo, Harlan Sprague Dawley rats
[3] = Formation of N,N-dimethylnitrosamine after oral DMAE; assay type: in vivo; details: rats, oral DMAE 10 to 500 mg/kg; limit of quantitation 5 pg/mL
[4] = test system: rodents; details: ref NTP 2002; cited from earlier work
[5] = for residual radioactivity remaining in tissues (excluding GI tract): male and female rats
[6] = female mice, gavage 160 mg/kg, 24 h
[7] = female rats, IV 16 mg/kg, 24 h, DMAE dose 0
[8] = female rats, IV 16 mg/kg, 24 h, DMAE dose 0, listed as [^14C]choline, 16 mg/kg
[9] = female rats, gavage 160 mg/kg, 24 h, DMAE dose 0
[10] = female rats, gavage 160 mg/kg, 24 h, DMAE dose 0, listed as [^14C]choline, 160 mg/kg
[11] = female rats, gavage 160 mg/kg, 24 h, DMAE pre-treatment 100 mg/kg
[12] = female rats, gavage 160 mg/kg, 24 h, DMAE pre-treatment 500 mg/kg
[13] = male rats, IV 16 mg/kg, 24 h, DMAE dose 0
[14] = male rats, gavage 160 mg/kg, 24 h, DMAE dose 0
[15] = male rats, gavage 160 mg/kg, 24 h, DMAE pre-treatment 100 mg/kg, 1 h prior
[16] = male rats, gavage 160 mg/kg, 24 h, DMAE pre-treatment 500 mg/kg, 1 h prior
[17] = male rats, gavage 160 mg/kg, 24 h, three DMAE pre-treatments 100 mg/kg 48, 24 and 1 h prior
[18] = DMAE dose 0, listed as [^14C]choline, 160 mg/kg
[19] = DMAE pre-treatment 500 mg/kg, 1 h prior

- Estimated percentage of area of DMAE Oxide peak in urine chromatogram ([1]; Mouse/Female, [^14C]DMAE 10 mg/kg): 92%
- Estimated percentage of area of DMAE Oxide peak in urine chromatogram ([1]; Mouse/Female, [^14C]DMAE 100 mg/kg): 18%
- Estimated percentage of area of DMAE Oxide peak in urine chromatogram ([1]; Mouse/Female, [^14C]DMAE 500 mg/kg): 34%
- Estimated percentage of area of DMAE Oxide peak in urine chromatogram ([1]; Mouse/Male, [^14C]DMAE 500 mg/kg): 0%
- Estimated percentage of area of DMAE Oxide peak in urine chromatogram ([1]; Mouse/Male, [^14C]DMAE 500 mg/kg, listed as DMAE oxide): absent
- Estimated percentage of area of DMAE Oxide peak in urine chromatogram ([2]; Rat/Female, [^14C]DMAE 500 mg/kg, Oral): 45%
- Estimated percentage of area of DMAE Oxide peak in urine chromatogram ([2]; Rat/Male, [^14C]DMAE 10 mg/kg, IV): 97%
- Estimated percentage of area of DMAE Oxide peak in urine chromatogram ([2]; Rat/Male, [^14C]DMAE 10 mg/kg, Oral): 5%
- Estimated percentage of area of DMAE Oxide peak in urine chromatogram ([2]; Rat/Male, [^14C]DMAE 100 mg/kg, Oral): 44%
- Estimated percentage of area of DMAE Oxide peak in urine chromatogram ([2]; Rat/Male, [^14C]DMAE 500 mg/kg, Oral): 66%
Compound: C[N+](C)([O-])CCO [DMAE Oxide]

Compound: CN(C)N=O [N,N-dimethylnitrosamine]
- N,N-dimethylnitrosamine detection [3]: not detected

Compound: C[N+](C)(C)CCO [choline, N,N,N-trimethylaminoethanol]
- oral LD50 [4]: 3400 to 3900 mg/kg
- % Dose Recovered, CO2 [5, 7]: 28.1 ± 2.90 % dose
- % Dose Recovered, Tissues and GI Tract (includes contents) [5, 7]: 54.0 ± 5.50 % dose
- % Dose Recovered, VOCs [5, 7]: 0.284 ± 0.038 % dose
- % Dose Recovered, Total Recovered [5, 8]: 90.1 ± 6.10 % dose
- % Dose Recovered, Urine [5, 8]: 7 % dose and 7.45 ± 2.58 % dose
- % Dose Recovered, Tissues and GI Tract (includes contents) [5, 9]: 26.1 ± 3.80 % dose
- % Dose Recovered, Total Recovered [5, 9]: 91.3 ± 9.60 % dose
- % Dose Recovered, VOCs [5, 9]: 0.325 ± 0.025 % dose
- % Dose Recovered, CO2 [5, 10]: 18 % dose and 17.8 ± 1.70 % dose
- % Dose Recovered, Urine [5, 10]: 34 % dose and 34.2 ± 7.90 % dose
- % Dose Recovered, Tissues and GI Tract (includes contents) [5, 11]: 24.7 ± 2.70 % dose
- % Dose Recovered, Total Recovered [5, 11]: 92.9 ± 4.80 % dose
- % Dose Recovered, VOCs [5, 11]: 0.268 ± 0.026 % dose
- dose recovered in tissues (excluding GI tract) [5, 11]: 21%
- % Dose Recovered, CO2 [5, 12]: 22.4 ± 3.60 % dose
- % Dose Recovered, Tissues and GI Tract (includes contents) [5, 12]: 25.9 ± 4.70 % dose
- % Dose Recovered, Total Recovered [5, 12]: 94.1 ± 4.80 % dose
- % Dose Recovered, Urine [5, 12]: 43.3 ± 5.60 % dose
- % Dose Recovered, VOCs [5, 12]: 0.227 ± 0.057 % dose
- recovery in tissues other than the GI tract ([5]; female rats, gavage 160 mg/kg, 24 h, [^14C]choline alone): ~ 21%
- total dose recovered ([5]; female rats, gavage 160 mg/kg, range over groups): 91–94%
- residual radioactivity remaining in tissues (excluding GI tract) ([5]; IV 16 mg/kg, 24 h): 48–49%
- residual radioactivity remaining in tissues (excluding GI tract) ([5]; oral gavage, 24 h): 17–21%
- % Dose Recovered, CO2 [5, 13]: 17.4 ± 2.40 % dose
- % Dose Recovered, Tissues and GI Tract (includes contents) [5, 13]: 56.2 ± 9.90 % dose
- % Dose Recovered, VOCs [5, 13]: 0.139 ± 0.035 % dose
- % Dose Recovered, Urine ([5]; male rats, IV 16 mg/kg, 24 h, DMAE dose 0, listed as [^14C]choline, 16 mg/kg): 4 % dose and 3.92 ± 0.850 % dose
- % Dose Recovered, Tissues and GI Tract (includes contents) [5, 14]: 21.4 ± 2.80 % dose
- % Dose Recovered, Total Recovered [5, 14]: 88.2 ± 5.50 % dose
- % Dose Recovered, CO2 ([5]; male rats, gavage 160 mg/kg, 24 h, DMAE dose 0, listed as [^14C]choline, 160 mg/kg): 12.5 ± 2.20 % dose
- % Dose Recovered, CO2 [5, 15]: 12.4 ± 1.70 % dose
- % Dose Recovered, Tissues and GI Tract (includes contents) [5, 15]: 20.4 ± 5.60 % dose
- % Dose Recovered, Urine [5, 15]: 31.9 ± 4.60 % dose
- % Dose Recovered, VOCs [5, 15]: 0.018 ± 0.003 % dose
- % Dose Recovered, CO2 [5, 16]: 15.1 ± 4.00 % dose
- % Dose Recovered, Tissues and GI Tract (includes contents) [5, 16]: 20.0 ± 3.80 % dose
- % Dose Recovered, Urine [5, 16]: 40.7 ± 6.30 % dose
- % Dose Recovered, VOCs [5, 16]: 0.065 ± 0.002 % dose
- dose recovered in tissues (excluding GI tract) ([5]; male rats, gavage 160 mg/kg, 24 h, [^14C]choline alone): ~ 18%
- dose recovered in feces ([5]; male rats, gavage 160 mg/kg, 24 h, pre-treatment with multiple doses of 100 mg/kg or a single dose of 500 mg/kg DMAE): 10–12%
- % Dose Recovered, CO2 [5, 17]: 17.0 ± 1.70 % dose
- % Dose Recovered, Tissues and GI Tract (includes contents) [5, 17]: 26.6 ± 5.30 % dose
- % Dose Recovered, Total Recovered [5, 17]: 93.7 ± 2.70 % dose
- % Dose Recovered, Urine [5, 17]: 39.9 ± 3.80 % dose
- % Dose Recovered, VOCs [5, 17]: below the limit of detection
- % Dose Recovered, Tissues and GI Tract (includes contents) ([6]; DMAE dose 0): 18.2 ± 2.90 % dose
- % Dose Recovered, CO2 [6, 18]: 25 % dose and 24.5 ± 5.40 % dose
- % Dose Recovered, Urine [6, 18]: 32 % dose and 31.8 ± 11.1 % dose
- % Dose Recovered, VOCs [6, 18]: 4 % dose and 3.61 ± 3.75 % dose
- % Dose Recovered, CO2 [6, 19]: 26.4 ± 8.60 % dose
- % Dose Recovered, Tissues and GI Tract (includes contents) [6, 19]: 18.4 ± 9.80 % dose
- % Dose Recovered, VOCs [6, 19]: 2.41 ± 1.77 % dose
- % Dose Recovered, Urine ([6]; DMAE pre-treatment 500 mg/kg, 1 h prior, listed as [^14C]choline): 32 % dose and 32.4 ± 7.20 % dose
- recovery in tissues (excluding GI tract) ([6]; [^14C]choline alone): 15%
